# Experimental data taken from US8952222B2, “Herbicide resistant sunflower plants derived from RW-B cultivar” (Anglo Netherlands Grain B.V., priority 2008, dated 2015).
# Several values for one entry are separate records, joined by “and”; a condition that tells them apart may be missing. Identical values can stand only once. Marks after values point to notes of the source that are not given here.
# Legend:
# Type in all cases: in vivo
# [1] = system: sunflower line RW-B; assay: Resistance to different AHAS-inhibitor herbicides, Phytotoxicity Index (FIG. 4); details: concentration of at least 67 grams of active ingredient per hectare
# Source text: Sunflower lines: The following genetic sunflower lines were used in determining AHAS resistance: two S lines (“B770” and “HA89”), two lines resistant to SUs derived from the population SURES (SuBL and SuRL), two lines resistant to IMIs derived from the population IMISUN (“Rha 426” and “B770imi”) and the line “RW-B”. […] SURES and IMISUN are breeding populations release by the USDA. B770 is a proprietary line from Nidera. B770imi is a proprietary line with B770 background carrying the resistant gene Imr1. RW-B was obtained as described above.
# Plants were grown in a greenhouse under natural light conditions supplemented with 400 W halide lamps to provide a 14 h day length. Day/night temperatures were 25 and 20° C., respectively. […] Plants without any symptoms were recorded as “0,” increasing levels of stunting and yellowing with respect to the untreated control plants were recorded as “1” to “4,” increasing levels of leaf abnormalities and leaf necrosis were recorded from “5” to “8,” and dead plants with total necrosis of the apex were recorded as “9.” PI data for each experiment were analyzed by an ANOVA test, means were compared by a LSD test.
# Response of sunflower lines (B770, HA89, SuBL, SuRL, Rha426, B770imi and RW-B) to four different families of AHAS inhibiting herbicides. […] The injury was measured using Phytotoxicity Index (PI).
# [2] = system: sunflower line BTI-M1; assay: Greenhouse spray with imazapyr, visual inspection for injury; details: imazapyr 80 gr ai/ha at V4, two weeks after treatment
# Experimental: (§1) 300 seeds of a wild sunflower population known to be tolerant to IMIs were sown under greenhouse conditions at Nidera Experimental Station in Venado Tuerto, Santa Fe, Argentina, together with the control lines HA89, B770 (Susceptible—[…]), BTI-M1 and RHA426 (Resistant—“R”). At the V4 stage all the plants were sprayed with imazapyr at a rate of 80 gr ai/ha. Two weeks after treatment, all the plants were evaluated by visual inspection for injury. S lines HA89 and B770 were killed by the treatment. […] In total, […] plants of the wild population resisted the herbicide treatment and 129 were killed (categorized as S).
# [3] = system: sunflower line HA89; assay: as above; details: imazapyr 80 gr ai/ha at V4, two weeks after treatment
# Experimental: as §1
# [4] = system: sunflower line RHA426; assay: as above; details: imazapyr 80 gr ai/ha at V4, two weeks after treatment
# Experimental: as §1
# [5] = system: sunflower line B770; assay: as above; details: imazapyr 80 gr ai/ha, two weeks after treatment
# Experimental: as §1
# One R plant (RW-73) was used as male in crosses with the cultivated susceptible lines HA89 and B770. Ten to 20 F1 plants from each cross were sprayed with imazapyr at a rate of 80 gr ai/ha, using B770 (S) and BTI-M1 (R) as controls. […] However, imazapyr treatment killed the B770 plants.
# [6] = system: sunflower line B770; assay: Whole plant dose response to imazapyr; details: line B770 (WT-Susceptible), 14 DAT; for Dry weight (as a % of the untreated plants): above ground biomass; for Phytotoxicity Index: scale 0-9
# Experimental: (§2) Seeds were sown in Petri dishes and, after germination; plantlets were transplanted to pots of 10 cm of diameter in a potting media consisting of equal parts of vermiculite, soil and sand. Plants were grown in a greenhouse under natural light conditions supplemented with 400 W sodium halide lamps to provide a 16 hr day-length. Day/night temperatures were 25 and 20° C., respectively. At the V2-V4 stage (Schneiter & Miller, 1981) 10 plants of each genotype were randomly assigned to each treatment consisting of eight imazapyr doses (0, 40, 80, 160, 320, 480, 640 and 800 g ai/ha, without treatment, 0.5×, 1×, 2×, 4×, 6×, 8× and 10× respectively), and a zero-time biomass determination. Experiment was arranged as a randomized block design with a full factorial (sunflower line x treatment) arrangement of treatments and 10 replications.
# (§3) On the day of herbicide application ten plants of each genotype were cut at the cotyledonal node and dried at 60° C. for 48 hrs for zero-time dried weight determination.
# (§4) The remaining plants were maintained for 14 days after imazapyr treatment (DAT) and their height, Phytotoxicity Index (PI) and above ground dry biomass were determined. Height was determined as the distance between the cotyledonal node and the apex of each plant. Above ground biomass data from each line were converted to biomass accumulation after application by subtracting the appropriate average zero-time biomass from each sample. Dry biomass data were converted to percentages of the untreated control plants within each line to allow direct comparisons between groups. […] Plants without any symptoms were recorded as “0”, increasing levels of stunting and chlorosis with respect to the untreated control plants were recorded as “1” to “4”, increasing levels of leaf abnormalities and leaf necrosis were recorded from “5” to “8”, and dead plants with total necrosis of the apex were recorded as “9”.
# [7] = system: sunflower line RW-B; assay: Whole plant dose response to imazapyr; details: from 4x to 10x rates of herbicide application, 14 DAT
# Experimental: as §2, §3, §4
# [8] = system: sunflower line RHA426; assay: Allelism test, challenge with imazapyr; details: control line RHA426; imazapyr 320 g a.i. ha-1 at V2-V4
# Source text: RW-B plants were crossed with RHA426 in order to determine if the resistant gene in RW-B is allelic to Imr1, the mutation previously described in imidazolinone resistant inbred lines. In this cross, F1 hybrids plants were self pollinated and backcrossed to RHA426 to obtain the F2 and BC1F1 generations, respectively. Plants from the parents and from F1, F2 and BC were challenged with 160 g a.i. ha^−1 and 320 g a.i. ha^−1 of imazapyr at the V2-V4 stage. Post challenge, plants were scored as described above.
# On the other hand, when F2 and BC populations were scored after applying herbicide at the higher rate (320 g a.i. ha^−1), segregation for susceptibility could be observed. Only two phenotypic classes were detected, a resistant class composed of plants that were without any sign of injury or only slight symptoms, and a susceptible phenotype that was killed at this dose in much the same way as the control line RHA426.
compound,measurement,setting,value
CCOc1nc(F)cc2nc(S(=O)(=O)Nc3c(Cl)cccc3C(=O)OC)nn12 [cloransulam-methyl],resistance of RW-B,[1],resistance
CC(C)C1(C)N=C(c2ncccc2C(=O)O)NC1=O (stereo not shown) [imazapyr],injury by visual inspection,[2],did not present any signs of damage
same,injury by visual inspection,[3],killed
same,injury by visual inspection,[4],signs of chlorosis
same,injury by visual inspection,[5],killed
same,Dry weight (as a % of the untreated plants),[6]; imazapyr 0.5x = 40 g ai/ha,32.7^d %
same,Dry weight (as a % of the untreated plants),[6]; imazapyr 1x = 80 g ai/ha,30.2^d %
same,Dry weight (as a % of the untreated plants),[6]; imazapyr 2x = 160 g ai/ha,27.6^d %
same,Dry weight (as a % of the untreated plants),[6]; imazapyr 4x = 320 g ai/ha,26.5^d %
same,Dry weight (as a % of the untreated plants),[6]; imazapyr 6x = 480 g ai/ha,25.9^d %
same,Dry weight (as a % of the untreated plants),[6]; imazapyr 8x = 640 g ai/ha,25.7^d %
same,Dry weight (as a % of the untreated plants),[6]; imazapyr 10x = 800 g ai/ha,25.2^d %
same,Height (as % of the untreated plants),[6]; imazapyr 0.5x = 40 g ai/ha,35.0% and 35.0^c %
same,Phytotoxicity Index,[6]; imazapyr 0.5x = 40 g ai/ha,8.9^a
same,Height (as % of the untreated plants),[6]; imazapyr 1x = 80 g ai/ha,31.8^c %
same,Phytotoxicity Index,[6]; imazapyr 1x = 80 g ai/ha,9^a
same,Height (as % of the untreated plants),[6]; imazapyr 2x = 160 g ai/ha,31.9^d %
same,Phytotoxicity Index,[6]; imazapyr 2x = 160 g ai/ha,9^a
same,Height (as % of the untreated plants),[6]; imazapyr 4x = 320 g ai/ha,31.9^d %
same,Phytotoxicity Index,[6]; imazapyr 4x = 320 g ai/ha,9^a
same,Height (as % of the untreated plants),[6]; imazapyr 6x = 480 g ai/ha,31.6^d %
same,Phytotoxicity Index,[6]; imazapyr 6x = 480 g ai/ha,9^a
same,Height (as % of the untreated plants),[6]; imazapyr 8x = 640 g ai/ha,31.7^d %
same,Phytotoxicity Index,[6]; imazapyr 8x = 640 g ai/ha,9^a
same,Height (as % of the untreated plants),[6]; imazapyr 10x = 800 g ai/ha,31.4^c %
same,Phytotoxicity Index,[6]; imazapyr 10x = 800 g ai/ha,9^a
same,"height, % of the untreated control plants",[7],75%
same,response to imazapyr,[8],killed
